In patent US12384800B2, “Antitumoral compounds” (priority 2017, dated 2025):
Read-outs that look alike come from different tables or passages of the source.

Legend:
[1] = MTMD (Maximum Tolerated Multiple Dose) determination, iv weekly x 3; type: in vivo; conditions: mice; iv/Q7d × 3
Source text: (§1) Female CD-1 or Athymic Nude-Fox1 nu/nu mice (Envigo) were utilized for all experiments. […] Animals were acclimated for five days prior to being individually tattoo-identified. Animal protocols were reviewed and approved according to the regional Institutional Animal Care and Use Committees.
(§2) Mice were randomly allocated into experimental groups and intravenously administered, once for the MTD (Maximum Tolerated Dose) determination or one administration a week during three consecutive weeks, for the MTMD (Maximum Tolerated Multiple Dose) determination study. The animals were administered with white formulation or with compound dissolved in the experimental formulation at different concentrations. The volume administered was always […]. Once administered, animals were monitored for clinical signs of systemic toxicity, changes in body weight and mortality up to 14 days after the administration.

HT1080 tumors = assay: Human fibrosarcoma xenograft, total diameter (tumor + leg)
[2] = MTD (Maximum Tolerated Dose) determination, single iv administration; type: in vivo; conditions: mice, iv/SD (single dose), monitored up to 14 days; for MTD at 14 days: female, mouse, in vivo
Source text: as §1, §2

[3] = test system: HT29 cells (colorectal adenocarcinoma); assay: cells; conditions: for CC50: read-out: LC50; for IC (total growth inhibition): read-out: TGI
How it was run: (§3)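 Cells seeded at 5000/well, attached 18 h, then exposed 72 h to ten 2/5 serial dilutions (10 to 0.003 μg/mL; 1% DMSO final) in triplicate; time-zero plate fixed. SRB staining after glutaraldehyde fixation; growth effects by NCI algorithm, four-parameter logistic fit.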

[4] = test system: MDA-MB-231 cells (breast adenocarcinoma); assay: cells; conditions: for CC50: read-out: LC50; for IC (total growth inhibition): read-out: TGI
How it was run: as §3

[5] = test system: PSN1 cells (pancreas adenocarcinoma); assay: cells; conditions: for IC (total growth inhibition): read-out: TGI; for CC50: read-out: LC50
How it was run: as §3

[6] = test system: A549 cells (lung carcinoma, NSCLC); assay: cells; conditions: for CC50: read-out: LC50; for IC (total growth inhibition): read-out: TGI
How it was run: as §3

COc1c(C)cc2c(c1O)[C@@H]1[C@@H]3[C@@H]4SC[C@]5(N[C@@H](CO)Cc6c5[nH]c5ccccc65)C(=O)OC[C@@H](c5c6c(c(C)c(OC(C)=O)c54)OCO6)N3[C@@H](O)[C@H](C2)N1C [Compound 4-R]
MTMD [1]: 0.30 mg/kg
Total diameter (tumor + leg) (HT1080 tumors; Day 0, iv Days 0, 7 and 14, PM01183 […], 4-R 0.30 mg/kg): 8.1 mm
Total diameter (tumor + leg) (HT1080 tumors; Day 2, iv Days 0, 7 and 14, PM01183 […], 4-R 0.30 mg/kg): 8.6 mm
Total diameter (tumor + leg) (HT1080 tumors; Day 7, iv Days 0, 7 and 14, PM01183 […], 4-R 0.30 mg/kg): 8.7 mm
Total diameter (tumor + leg) (HT1080 tumors; Day 9, iv Days 0, 7 and 14, PM01183 […], 4-R 0.30 mg/kg): 9.0 mm
Total diameter (tumor + leg) (HT1080 tumors; Day 14, iv Days 0, 7 and 14, PM01183 […], 4-R 0.30 mg/kg): 9.3 mm
Total diameter (tumor + leg) (HT1080 tumors; Day 18, iv Days 0, 7 and 14, PM01183 […], 4-R 0.30 mg/kg): 10.3 mm
Total diameter (tumor + leg) (HT1080 tumors; Day 21, iv Days 0, 7 and 14, PM01183 […], 4-R 0.30 mg/kg): 11.5 mm
Total diameter (tumor + leg) (HT1080 tumors; Day 23, iv Days 0, 7 and 14, PM01183 […], 4-R 0.30 mg/kg): 13.3 mm
Total diameter (tumor + leg) (HT1080 tumors; Day 25, iv Days 0, 7 and 14, PM01183 […], 4-R 0.30 mg/kg): 15.8 mm
Total diameter (tumor + leg) (HT1080 tumors; Day 28, iv Days 0, 7 and 14, 4-R 0.30 mg/kg): 18.0 mm
MTD [2]: 0.25 mg/kg

COc1c(C)cc2c(c1O)[C@@H]1[C@@H]3[C@@H]4SC[C@]5(N[C@H](CO)Cc6c5[nH]c5ccccc65)C(=O)OC[C@@H](c5c6c(c(C)c(OC(C)=O)c54)OCO6)N3[C@@H](O)[C@H](C2)N1C [Compound 4-S]
Total diameter (tumor + leg) (HT1080 tumors; Day 0.0, iv Days 0, 7 and 14, compound C 3.0 mg/kg, 4-S […], 12-S […]): 7.5 mm
Total diameter (tumor + leg) (HT1080 tumors; Day 2.0, iv Days 0, 7 and 14, compound C 3.0 mg/kg, 4-S […], 12-S […]): 7.7 mm
Total diameter (tumor + leg) (HT1080 tumors; Day 5.0, iv Days 0, 7 and 14, compound C 3.0 mg/kg, 4-S […], 12-S […]): 8.3 mm
Total diameter (tumor + leg) (HT1080 tumors; Day 7.0, iv Days 0, 7 and 14, compound C 3.0 mg/kg, 4-S […], 12-S […]): 8.8 mm
Total diameter (tumor + leg) (HT1080 tumors; Day 9.0, iv Days 0, 7 and 14, compound C 3.0 mg/kg, 4-S […], 12-S […]): 8.4 mm
Total diameter (tumor + leg) (HT1080 tumors; Day 12.0, iv Days 0, 7 and 14, compound C 3.0 mg/kg, 4-S […], 12-S […]): 8.4 mm
Total diameter (tumor + leg) (HT1080 tumors; Day 14.0, iv Days 0, 7 and 14, compound C 3.0 mg/kg, 4-S […], 12-S […]): 9.6 mm
Total diameter (tumor + leg) (HT1080 tumors; Day 16.0, iv Days 0, 7 and 14, compound C 3.0 mg/kg, 4-S […], 12-S […]): 10.0 mm
Total diameter (tumor + leg) (HT1080 tumors; Day 19.0, iv Days 0, 7 and 14, compound C 3.0 mg/kg, 4-S […], 12-S […]): 10.4 mm
Total diameter (tumor + leg) (HT1080 tumors; Day 21.0, iv Days 0, 7 and 14, compound C 3.0 mg/kg, 4-S […], 12-S […]): 12.1 mm
Total diameter (tumor + leg) (HT1080 tumors; Day 23.0, iv Days 0, 7 and 14, compound C 3.0 mg/kg, 4-S […], 12-S […]): 12.7 mm
MTD [2]: 1.0 mg/kg

COc1ccc2[nH]c3c(c2c1)C[C@H](CO)N[C@]31CS[C@@H]2c3c(OC(C)=O)c(C)c4c(c3[C@H](COC1=O)N1[C@@H]2[C@H]2c3c(cc(C)c(OC)c3O)C[C@@H]([C@@H]1O)N2C)OCO4 [Compound 19-R]
MTMD [1]: 0.15 mg/kg
CC50 ([3]; Homo sapiens, HT-29, 72 h): > 123 nM
IC (total growth inhibition) ([3]; Homo sapiens, HT-29, 72 h): 0.00172 µM
CC50 ([4]; Homo sapiens, MDA-MB-231, 72 h): > 123 nM
IC (total growth inhibition) ([4]; Homo sapiens, MDA-MB-231, 72 h): 0.00135 µM
IC (total growth inhibition) ([5]; Homo sapiens, PSN1, 72 h): 0.00135 µM
CC50 ([6]; Homo sapiens, A549, 72 h): > 123 nM
IC (total growth inhibition) ([6]; Homo sapiens, A549, 72 h): 0.00356 µM
MTD at 14 days [2]: 0.15 mg/kg

COc1ccc2[nH]c3c(c2c1)C[C@@H](CO)N[C@]31CS[C@@H]2c3c(OC(C)=O)c(C)c4c(c3[C@H](COC1=O)N1[C@@H]2[C@H]2c3c(cc(C)c(OC)c3O)C[C@@H]([C@@H]1O)N2C)OCO4 [Compound 19-S]
MTMD [1]: 0.75 mg/kg
GI50 ([3]; Homo sapiens, HT-29, 72 h): 1.35 nM
CC50 ([3]; Homo sapiens, HT-29, 72 h): > 123 nM
IC (total growth inhibition) ([3]; Homo sapiens, HT-29, 72 h): 0.0016 µM
GI50 ([4]; Homo sapiens, MDA-MB-231, 72 h): 1.96 nM
CC50 ([4]; Homo sapiens, MDA-MB-231, 72 h): 11 nM
IC (total growth inhibition) ([4]; Homo sapiens, MDA-MB-231, 72 h): 0.00331 µM
GI50 ([5]; Homo sapiens, PSN1, 72 h): 2.95 nM
CC50 ([5]; Homo sapiens, PSN1, 72 h): > 123 nM
IC (total growth inhibition) ([5]; Homo sapiens, PSN1, 72 h): 0.00319 µM
GI50 ([6]; Homo sapiens, A549, 72 h): 3.07 nM
CC50 ([6]; Homo sapiens, A549, 72 h): > 123 nM
IC (total growth inhibition) ([6]; Homo sapiens, A549, 72 h): 0.00331 µM
MTD at 14 days [2]: 0.5 mg/kg

COc1c(C)cc2c(c1O)[C@@H]1[C@@H]3[C@@H]4SC[C@]5(N[C@@H](C)Cc6c5[nH]c5ccccc65)C(=O)OC[C@@H](c5c6c(c(C)c(OC(C)=O)c54)OCO6)N3[C@@H](O)[C@H](C2)N1C [Compound D]
MTMD [1]: 0.5 mg/kg
Total diameter (tumor + leg) (HT1080 tumors; Day 0): 7.5 mm
Total diameter (tumor + leg) (HT1080 tumors; Day 0, iv Days 0, 7 and 14, PM01183 […], Compound D 0.5 mg/kg): 7.7 mm
Total diameter (tumor + leg) (HT1080 tumors; Day 2): 8.2 mm
Total diameter (tumor + leg) (HT1080 tumors; Day 2, iv Days 0, 7 and 14, PM01183 […], Compound D 0.5 mg/kg): 9.5 mm
Total diameter (tumor + leg) (HT1080 tumors; Day 5): 7.5 mm
Total diameter (tumor + leg) (HT1080 tumors; Day 5, iv Days 0, 7 and 14, PM01183 […], Compound D 0.5 mg/kg): 8.8 mm
Total diameter (tumor + leg) (HT1080 tumors; Day 7): 7.4 mm
Total diameter (tumor + leg) (HT1080 tumors; Day 7, iv Days 0, 7 and 14, PM01183 […], Compound D 0.5 mg/kg): 8.7 mm
Total diameter (tumor + leg) (HT1080 tumors; Day 9): 8.1 mm
Total diameter (tumor + leg) (HT1080 tumors; Day 9, iv Days 0, 7 and 14, PM01183 […], Compound D 0.5 mg/kg): 9.4 mm
Total diameter (tumor + leg) (HT1080 tumors; Day 12): 7.9 mm
Total diameter (tumor + leg) (HT1080 tumors; Day 12, iv Days 0, 7 and 14, PM01183 […], Compound D 0.5 mg/kg): 9.4 mm
Total diameter (tumor + leg) (HT1080 tumors; Day 14): 7.7 mm
Total diameter (tumor + leg) (HT1080 tumors; Day 14, iv Days 0, 7 and 14, PM01183 […], Compound D 0.5 mg/kg): 10.1 mm
Total diameter (tumor + leg) (HT1080 tumors; Day 16): 8.8 mm
Total diameter (tumor + leg) (HT1080 tumors; Day 16, iv Days 0, 7 and 14, PM01183 […], Compound D 0.5 mg/kg): 10.9 mm
Total diameter (tumor + leg) (HT1080 tumors; Day 19): 10.2 mm
Total diameter (tumor + leg) (HT1080 tumors; Day 19, iv Days 0, 7 and 14, PM01183 […], Compound D 0.5 mg/kg): 11.2 mm
Total diameter (tumor + leg) (HT1080 tumors; Day 21): 11.2 mm
Total diameter (tumor + leg) (HT1080 tumors; Day 21, iv Days 0, 7 and 14, PM01183 […], Compound D 0.5 mg/kg): 12.1 mm
Total diameter (tumor + leg) (HT1080 tumors; Day 23): 12.2 mm
Total diameter (tumor + leg) (HT1080 tumors; Day 23, iv Days 0, 7 and 14, Compound D 0.5 mg/kg): 13.0 mm
Total diameter (tumor + leg) (HT1080 tumors; Day 26, iv Days 0, 7 and 14, Compound D 0.5 mg/kg): 15.0 mm
Total diameter (tumor + leg) (HT1080 tumors; Day 27): 13.2 mm
Total diameter (tumor + leg) (HT1080 tumors; Day 28, iv Days 0, 7 and 14, Compound D 0.5 mg/kg): 18.0 mm
Total diameter (tumor + leg) (HT1080 tumors; Day 30): 14.6 mm
Total diameter (tumor + leg) (HT1080 tumors; Day 33): 16.3 mm
Total diameter (tumor + leg) (HT1080 tumors; Day 35): 18.0 mm
GI50 ([3]; HT29, 72 hours treatment, SRB): 10.3 nM
TGI ([3]; HT29, total cell growth inhibition, 72 hours, SRB): 2.34E−08 Molar
CC50 ([3]; HT29, 50% net cell killing, 72 hours, SRB): > 130 nM
GI50 ([4]; MDA-MB-231, 72 hours treatment, SRB): 9.88 nM
TGI ([4]; MDA-MB-231, total cell growth inhibition, 72 hours, SRB): 1.95E−08 Molar
CC50 ([4]; MDA-MB-231, 50% net cell killing, 72 hours, SRB): 53.3 nM
GI50 ([5]; PSN1, 72 hours treatment, SRB): 20.8 nM
TGI ([5]; PSN1, total cell growth inhibition, 72 hours, SRB): 2.21E−08 Molar
CC50 ([5]; PSN1, 50% net cell killing, 72 hours, SRB): 24.7 nM
GI50 ([6]; A549, 72 hours treatment, SRB): 12.5 nM
TGI ([6]; A549, total cell growth inhibition, 72 hours, SRB): 2.86E−08 Molar
CC50 ([6]; A549, 50% net cell killing, 72 hours, SRB): > 130 nM
